Reference: ChEMBL document CHEMBL1201862, “PubChem BioAssay data set” (2004)
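Assay format: 96-well plates, 48-hour exposure. GI50: concentration for 50% inhibition of growth.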 Calls of active or inactive are those of the source. Cut-off read from the data, not from the text of the source: active = GI50 up to about 1.1 µM and inactive = higher.

Legend:
Experiment in all cases: NCI tumour cell line growth inhibition, 48 h
NCI-H460 = test system: NCI-H460
SF-539 = test system: SF-539
UO-31 = test system: UO-31
OVCAR-3 = test system: OVCAR-3
KM12 = test system: KM12
TK-10 = test system: TK-10
LXFL 529 = test system: LXFL 529
CCRF-CEM = test system: CCRF-CEM
HOP-18 = test system: HOP-18
SK-MEL-28 = test system: SK-MEL-28
OVCAR-8 = test system: OVCAR-8
RXF 393 = test system: RXF 393
U-251 = test system: U-251
K562 = test system: K562
HCT-15 = test system: HCT-15
DLD-1 = test system: DLD-1
SK-MEL-2 = test system: SK-MEL-2
786-0 = test system: 786-0
A549 = test system: A549
SW-620 = test system: SW-620
OVCAR-5 = test system: OVCAR-5
EKVX = test system: EKVX
SNB-19 = test system: SNB-19
HOP-62 = test system: HOP-62
DMS-273 = test system: DMS-273
ACHN = test system: ACHN
UACC-62 = test system: UACC-62
HCC 2998 = test system: HCC 2998
SN12C = test system: SN12C
HT-29 = test system: HT-29
SNB-75 = test system: SNB-75
DMS-114 = test system: DMS-114
HL-60 = test system: HL-60
MOLT-4 = test system: MOLT-4
SK-OV-3 = test system: SK-OV-3
NCI-H226 = test system: NCI-H226
Malme-3M = test system: Malme-3M
SK-MEL-5 = test system: SK-MEL-5
SF-295 = test system: SF-295
LOX IMVI = test system: LOX IMVI
SNB-78 = test system: SNB-78
CAKI-1 = test system: CAKI-1
HCT-116 = test system: HCT-116
SF-268 = test system: SF-268
SR = test system: SR
IGROV-1 = test system: IGROV-1
HOP-92 = test system: HOP-92
M14 = test system: M14
COLO 205 = test system: COLO 205
UACC-257 = test system: UACC-257
OVCAR-4 = test system: OVCAR-4
A498 = test system: A498
NCI-H522 = test system: NCI-H522
KM-20L2 = test system: KM-20L2
NCI-H23 = test system: NCI-H23
M19-MEL = test system: M19-MEL
RPMI-8226 = test system: RPMI-8226
XF498 = test system: XF498

CN(C)CCNC(=O)c1ccc2ccc3cccnc3c2n1
GI50 (NCI-H460): 6.18 µM (inactive)
GI50 (SF-539): 8.63 µM (inactive)
GI50 (UO-31): 12.2 µM (inactive)
GI50 (OVCAR-3): 24.7 µM (inactive)
GI50 (KM12): 18.2 µM (inactive)
GI50 (TK-10): 9.35 µM (inactive)
GI50 (LXFL 529): 11.8 µM (inactive)
GI50 (CCRF-CEM): 18.9 µM (inactive)
GI50 (HOP-18): 26.2 µM (inactive)
GI50 (SK-MEL-28): 27.9 µM (inactive)
GI50 (OVCAR-8): 8.17 µM (inactive)
GI50 (RXF 393): 12.8 µM (inactive)
GI50 (U-251): 16.3 µM (inactive)
GI50 (K562): 21.5 µM (inactive)
GI50 (HCT-15): 11.8 µM
GI50 (DLD-1): 6.55 µM (inactive)
GI50 (SK-MEL-2): 15.2 µM (inactive)
GI50 (786-0): 11.1 µM (inactive)
GI50 (A549): 12.1 µM (inactive)
GI50 (SW-620): 5.98 µM (inactive)
GI50 (OVCAR-5): 14.6 µM (inactive)
GI50 (EKVX): 15.5 µM (inactive)
GI50 (SNB-19): 19.6 µM (inactive)
GI50 (HOP-62): 19.2 µM (inactive)
GI50 (DMS-273): 6.89 µM (inactive)
GI50 (ACHN): 7.45 µM (inactive)
GI50 (UACC-62): 16.6 µM (inactive)
GI50 (HCC 2998): 10.5 µM (inactive)
GI50 (SN12C): 13.8 µM (inactive)
GI50 (HT-29): 9.14 µM (inactive)
GI50 (SNB-75): 16 µM (inactive)
GI50 (DMS-114): 12.1 µM (inactive)
GI50 (HL-60): 26.4 µM (inactive)
GI50 (MOLT-4): 3.44 µM (inactive)
GI50 (SK-OV-3): 19.5 µM (inactive)
GI50 (NCI-H226): 14.3 µM (inactive)
GI50 (Malme-3M): 13.5 µM (inactive)
GI50 (SK-MEL-5): 13.9 µM (inactive)
GI50 (SF-295): 18.7 µM (inactive)
GI50 (LOX IMVI): 9.51 µM (inactive)
GI50 (SNB-78): 7.78 µM (inactive)
GI50 (CAKI-1): 13.1 µM (inactive)
GI50 (HCT-116): 4.02 µM (inactive)
GI50 (SF-268): 16.2 µM (inactive)
GI50 (SR): 4.24 µM (inactive)
GI50 (IGROV-1): 25.7 µM (inactive)
GI50 (HOP-92): 16.4 µM (inactive)
GI50 (M14): 16.4 µM (inactive)
GI50 (COLO 205): 8.24 µM (inactive)
GI50 (UACC-257): 15.3 µM (inactive)
GI50 (OVCAR-4): 14.5 µM (inactive)
GI50 (A498): 14.3 µM (inactive)
GI50 (NCI-H522): 7.23 µM (inactive)
GI50 (KM-20L2): 9.57 µM (inactive)
GI50 (NCI-H23): 17.1 µM (inactive)

COc1ccc(C2C(Cl)C(=O)N2NC(=O)c2ccc(NC(C)=O)cc2)cc1OC (stereo not given)
GI50 (NCI-H460): > 100 µM (inactive)
GI50 (SF-539): > 100 µM (inactive)
GI50 (UO-31): > 100 µM (inactive)
GI50 (OVCAR-3): > 100 µM (inactive)
GI50 (KM12): > 100 µM (inactive)
GI50 (TK-10): > 100 µM (inactive)
GI50 (LXFL 529): > 100 µM (inactive)
GI50 (CCRF-CEM): > 100 µM (inactive)
GI50 (HOP-18): > 100 µM (inactive)
GI50 (SK-MEL-28): > 100 µM (inactive)
GI50 (OVCAR-8): > 100 µM (inactive)
GI50 (U-251): > 100 µM (inactive)
GI50 (K562): > 100 µM (inactive)
GI50 (SK-MEL-2): > 100 µM (inactive)
GI50 (A549): > 100 µM (inactive)
GI50 (SW-620): > 100 µM (inactive)
GI50 (OVCAR-5): > 100 µM (inactive)
GI50 (SNB-19): > 100 µM (inactive)
GI50 (HOP-62): > 100 µM (inactive)
GI50 (ACHN): > 100 µM (inactive)
GI50 (UACC-62): > 100 µM (inactive)
GI50 (HCC 2998): > 100 µM (inactive)
GI50 (M19-MEL): > 100 µM (inactive)
GI50 (HT-29): > 100 µM (inactive)
GI50 (SNB-75): > 100 µM (inactive)
GI50 (HL-60): > 100 µM (inactive)
GI50 (MOLT-4): > 100 µM (inactive)
GI50 (SK-OV-3): > 100 µM (inactive)
GI50 (NCI-H226): > 100 µM (inactive)
GI50 (Malme-3M): > 100 µM (inactive)
GI50 (SK-MEL-5): > 100 µM (inactive)
GI50 (RPMI-8226): > 100 µM (inactive)
GI50 (SF-295): > 100 µM (inactive)
GI50 (HCT-116): > 100 µM (inactive)
GI50 (SF-268): > 100 µM (inactive)
GI50 (SR): > 100 µM (inactive)
GI50 (IGROV-1): > 100 µM (inactive)
GI50 (HOP-92): > 100 µM (inactive)
GI50 (COLO 205): > 100 µM (inactive)
GI50 (UACC-257): > 100 µM (inactive)
GI50 (NCI-H522): > 100 µM (inactive)
GI50 (NCI-H23): > 100 µM (inactive)

CC(/C=C/c1ccccc1)=N\N=C(C)\C=C\c1ccccc1
GI50 (NCI-H460): > 100 µM (inactive)
GI50 (OVCAR-3): > 100 µM (inactive)
GI50 (KM12): > 100 µM (inactive)
GI50 (TK-10): > 100 µM (inactive)
GI50 (LXFL 529): > 100 µM (inactive)
GI50 (CCRF-CEM): > 100 µM (inactive)
GI50 (SK-MEL-28): > 100 µM (inactive)
GI50 (OVCAR-8): > 100 µM (inactive)
GI50 (U-251): > 100 µM (inactive)
GI50 (K562): > 100 µM (inactive)
GI50 (HCT-15): > 100 µM
GI50 (DLD-1): > 100 µM (inactive)
GI50 (SK-MEL-2): > 100 µM (inactive)
GI50 (786-0): > 100 µM (inactive)
GI50 (A549): > 100 µM (inactive)
GI50 (SW-620): > 100 µM (inactive)
GI50 (OVCAR-5): > 100 µM (inactive)
GI50 (EKVX): > 100 µM (inactive)
GI50 (XF498): > 100 µM (inactive)
GI50 (HOP-62): > 100 µM (inactive)
GI50 (DMS-273): > 100 µM (inactive)
GI50 (ACHN): > 100 µM (inactive)
GI50 (HCC 2998): > 100 µM (inactive)
GI50 (SN12C): > 100 µM (inactive)
GI50 (M19-MEL): > 100 µM (inactive)
GI50 (HT-29): > 100 µM (inactive)
GI50 (SNB-75): 42.2 µM (inactive)
GI50 (HL-60): > 100 µM (inactive)
GI50 (MOLT-4): > 100 µM (inactive)
GI50 (SK-OV-3): > 100 µM (inactive)
GI50 (NCI-H226): > 100 µM (inactive)
GI50 (Malme-3M): > 100 µM (inactive)
GI50 (SK-MEL-5): > 100 µM (inactive)
GI50 (RPMI-8226): > 100 µM (inactive)
GI50 (SF-295): > 100 µM (inactive)
GI50 (LOX IMVI): > 100 µM (inactive)
GI50 (SNB-78): > 100 µM (inactive)
GI50 (HCT-116): > 100 µM (inactive)
GI50 (SF-268): > 100 µM (inactive)
GI50 (SR): > 100 µM (inactive)
GI50 (IGROV-1): > 100 µM (inactive)
GI50 (M14): > 100 µM (inactive)
GI50 (COLO 205): > 10 µM (inactive)
GI50 (UACC-257): > 100 µM (inactive)
GI50 (OVCAR-4): > 100 µM (inactive)
GI50 (A498): > 100 µM (inactive)
GI50 (NCI-H522): > 100 µM (inactive)
GI50 (KM-20L2): > 100 µM (inactive)
GI50 (NCI-H23): > 100 µM (inactive)

O=C(CSc1nnc(Cc2ccccc2)o1)Nc1ccc(Cl)cc1
GI50 (NCI-H460): 77.3 µM (inactive)
GI50 (SF-539): > 100 µM (inactive)
GI50 (UO-31): > 100 µM (inactive)
GI50 (OVCAR-3): 68.2 µM (inactive)
GI50 (KM12): > 100 µM (inactive)
GI50 (TK-10): > 100 µM (inactive)
GI50 (LXFL 529): 86.3 µM (inactive)
GI50 (CCRF-CEM): > 100 µM (inactive)
GI50 (HOP-18): > 100 µM (inactive)
GI50 (SK-MEL-28): > 100 µM (inactive)
GI50 (OVCAR-8): 96.6 µM (inactive)
GI50 (RXF 393): > 100 µM (inactive)
GI50 (U-251): > 100 µM (inactive)
GI50 (K562): 87.7 µM (inactive)
GI50 (HCT-15): > 100 µM
GI50 (DLD-1): > 100 µM (inactive)
GI50 (SK-MEL-2): 82 µM (inactive)
GI50 (786-0): > 100 µM (inactive)
GI50 (A549): > 100 µM (inactive)
GI50 (SW-620): > 100 µM (inactive)
GI50 (OVCAR-5): 70.3 µM (inactive)
GI50 (EKVX): 32.7 µM (inactive)
GI50 (SNB-19): > 100 µM (inactive)
GI50 (HOP-62): > 100 µM (inactive)
GI50 (DMS-273): 67.8 µM (inactive)
GI50 (ACHN): 75.9 µM (inactive)
GI50 (UACC-62): 41.8 µM (inactive)
GI50 (HCC 2998): > 100 µM (inactive)
GI50 (SN12C): > 100 µM (inactive)
GI50 (M19-MEL): > 100 µM (inactive)
GI50 (HT-29): 47.4 µM (inactive)
GI50 (SNB-75): 67.8 µM (inactive)
GI50 (DMS-114): 39.4 µM (inactive)
GI50 (HL-60): > 100 µM (inactive)
GI50 (MOLT-4): > 100 µM (inactive)
GI50 (SK-OV-3): > 100 µM (inactive)
GI50 (NCI-H226): 86.5 µM (inactive)
GI50 (Malme-3M): > 100 µM (inactive)
GI50 (SK-MEL-5): 57.8 µM (inactive)
GI50 (RPMI-8226): > 100 µM (inactive)
GI50 (SF-295): 66.8 µM (inactive)
GI50 (LOX IMVI): > 100 µM (inactive)
GI50 (SNB-78): > 100 µM (inactive)
GI50 (CAKI-1): 59.2 µM (inactive)
GI50 (HCT-116): > 100 µM (inactive)
GI50 (IGROV-1): 92 µM (inactive)
GI50 (M14): > 100 µM (inactive)
GI50 (COLO 205): > 100 µM (inactive)
GI50 (UACC-257): > 100 µM (inactive)
GI50 (OVCAR-4): 58.7 µM (inactive)
GI50 (A498): 46.8 µM (inactive)
GI50 (NCI-H522): 75.3 µM (inactive)
GI50 (KM-20L2): 78.5 µM (inactive)
GI50 (NCI-H23): 52.2 µM (inactive)
